Experimental data published in patent US6737383B1, “Herbicidal oxadiazolidines” (priority 1999, dated 2004).

Key:
surinam grass = assay: Test B pre/postemergence surinam grass; assay type: in vivo, Brachiaria decumbens
Method in brief: (§1)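 Response is a visual 0-to-10 score relative to untreated plants, where 0 means no effect and 10 means complete control, taken twelve to sixteen days after application. Treatments went onto soil at planting and onto foliage of 1- to 4-leaf plants, using a surfactant-containing non-phytotoxic solvent.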

pigweed = assay: Test B pre/postemergence pigweed; assay type: in vivo, Amaranthus retroflexus
Method in brief: as §1

sugar beet = assay: Test B pre/postemergence sugar beet; assay type: in vivo, Beta vulgaris
Method in brief: as §1

corn = assay: Test B pre/postemergence corn; assay type: in vivo, Zea mays
Method in brief: as §1

crabgrass = assay: Test B pre/postemergence crabgrass; assay type: in vivo, Digitaria sanguinalis
Method in brief: as §1

purple nutsedge = assay: Test B pre/postemergence purple nutsedge; assay type: in vivo, Cyperus rotundus
Method in brief: as §1

cocklebur = assay: Test B pre/postemergence cocklebur; assay type: in vivo, Xanthium strumarium
Method in brief: as §1

duck salad = assay: Test B flood test duck salad; assay type: in vivo, Heteranthera limosa
Method in brief: (§2)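 Each value is a visual injury score relative to controls, with 10 meaning complete control and 0 no effect. Evaluation took place twelve to sixteen days after the 2-leaf-stage plants were treated and kept in the greenhouse.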

wheat = assay: Test B pre/postemergence wheat; assay type: in vivo, Triticum aestivum
Method in brief: as §1

soybean = assay: Test B pre/postemergence soybean; assay type: in vivo, Glycine max
Method in brief: as §1

rape = assay: Test B pre/postemergence rape; assay type: in vivo, Brassica napus
Method in brief: as §1

smallflower flatsedge = assay: Test B flood test smallflower flatsedge; assay type: in vivo, Cyperus difformis
Method in brief: as §2

bamyardgrass = assay: Test B flood test barnyardgrass; assay type: in vivo, Echinochloa crus-galli
Method in brief: as §2

blackgrass = assay: Test B pre/postemergence blackgrass; assay type: in vivo, Alopecurus myosuroides
Method in brief: as §1

rice = assay: Test B flood test rice; assay type: in vivo, Oryza sativa
Method in brief: as §2

giant foxtail = assay: Test B pre/postemergence giant foxtail; assay type: in vivo, Setaria faberii
Method in brief: as §1

[1] = Preemergence, Rate 62 g/ha, scale of 0 to 10 where 0 is no effect and 10 is complete control
[2] = Preemergence, Rate 250 g/ha, scale of 0 to 10 where 0 is no effect and 10 is complete control
[3] = Preemergence, Rate 500 g/ha, scale of 0 to 10 where 0 is no effect and 10 is complete control
[4] = Rate 62 g/ha, Postemergence, scale of 0 to 10 where 0 is no effect and 10 is complete control
[5] = Rate 125 g/ha, Preemergence, scale of 0 to 10 where 0 is no effect and 10 is complete control
[6] = Rate 500 g/ha, Postemergence, scale 0 to 10, 0 no effect, 10 complete control
[7] = Rate 125 g/ha, Postemergence, scale 0 to 10
[8] = Rate 62 g/ha, headed Pre-emergence (flood test species), scale 0 to 10 (0 no effect, 10 complete control)
[9] = Rate 125 g/ha, Pre-emergence, flood test species, scale 0 to 10 where 0 is no effect and 10 is complete control
[10] = Rate 250 g/ha, Pre-emergence, flood-test species, scale 0 to 10, 0 is no effect, 10 is complete control
[11] = Rate 500 g/ha, Pre-emergence, flood test species, scale 0 to 10 (0 no effect, 10 complete control)

Q: With `CC(C)N(C(=O)n1oc(=O)n(CC(C)(C)C)c1=O)c1ccc(F)cc1` [Compound 246] as the compound, how does the “B. signalgrass plant response rating” value (surinam grass; [1]) read?
A: Its value is 0.

Q: And the “B. signalgrass plant response rating” value (surinam grass; [2])?
A: The value was 3.

Q: And the “Plant response rating, B. signalgrass” value (surinam grass; [3])?
A: Its value is 5.

Q: And the “B. signalgrass plant response rating” value (surinam grass; [4])?
A: Its value is 0.

Q: What about the “B. signalgrass plant response rating” value (surinam grass; Rate 125 g/ha, Postemergence, scale 0 (no effect) to 10 (complete control)) of the same compound?
A: The value was 0.

Q: What about the “B. signalgrass plant response rating” value (surinam grass; [5]) of the same compound?
A: Its value is 2.

Q: What about the “Plant response rating (0 to 10; 0 is no effect, 10 is complete control), B. signalgrass” value (surinam grass; Rate 250 g/ha, Postemergence) of the same compound?
A: Its value is 0.

Q: What about the “B. signalgrass plant response rating” value (surinam grass; [6]) of the same compound?
A: The value was 1.

Q: And the “Redroot pigweed plant response rating” value (pigweed; [1])?
A: The value was 0.

Q: What about the “Redroot pigweed plant response rating” value (pigweed; [2]) of the same compound?
A: Its value is 0.

Q: And the “Plant response rating, Redroot pigweed” value (pigweed; [3])?
A: The value was 3.

Q: What about the “Redroot pigweed plant response rating” value (pigweed; [5]) of the same compound?
A: Its value is 0.

Q: And the “Plant response rating (0 to 10; 0 is no effect, 10 is complete control), Redroot pigweed” value (pigweed; Rate 250 g/ha, Postemergence)?
A: Its value is 2.

Q: And the “Redroot pigweed plant response rating” value (pigweed; [6])?
A: The value was 3.

Q: What about the “Sugarbeets plant response rating” value (sugar beet; [1]) of the same compound?
A: The value was 0.

Q: What about the “Sugarbeets plant response rating” value (sugar beet; [2]) of the same compound?
A: Its value is 2.

Q: What about the “Plant response rating, Sugarbeets” value (sugar beet; [3]) of the same compound?
A: The value was 8.

Q: And the “Sugarbeets plant response rating” value (sugar beet; [5])?
A: Its value is 1.

Q: And the “Sugarbeets plant response rating” value (sugar beet; [6])?
A: Its value is 0.

Q: What about the “Corn plant response rating” value (corn; [1]) of the same compound?
A: The value was 0.

Q: What about the “Corn plant response rating” value (corn; [2]) of the same compound?
A: Its value is 0.

Q: What about the “Plant response rating, Corn” value (corn; [3]) of the same compound?
A: Its value is 3.

Q: What about the “Corn plant response rating” value (corn; [4]) of the same compound?
A: Its value is 0.

Q: And the “Corn plant response rating” value (corn; [7])?
A: Its value is 0.

Q: What about the “Corn plant response rating” value (corn; [5]) of the same compound?
A: The value was 0.

Q: And the “Plant response rating (0 to 10; 0 is no effect, 10 is complete control), Corn” value (corn; Rate 250 g/ha, Postemergence)?
A: Its value is 0.

Q: And the “Corn plant response rating” value (corn; [6])?
A: Its value is 0.

Q: And the “Crabgrass plant response rating” value (crabgrass; [1])?
A: The value was 3.

Q: And the “Crabgrass plant response rating” value (crabgrass; [2])?
A: The value was 10.

Q: And the “Plant response rating, Crabgrass” value (crabgrass; [3])?
A: Its value is 10.

Q: And the “Crabgrass plant response rating” value (crabgrass; [5])?
A: Its value is 3.

Q: And the “Plant response rating (0 to 10; 0 is no effect, 10 is complete control), Crabgrass” value (crabgrass; Rate 250 g/ha, Postemergence)?
A: The value was 0.

Q: And the “Crabgrass plant response rating” value (crabgrass; [6])?
A: Its value is 3.

Q: And the “Nutsedge plant response rating” value (purple nutsedge; [2])?
A: The value was 0.

Q: And the “Plant response rating, Nutsedge” value (purple nutsedge; [3])?
A: The value was 0.

Q: And the “Plant response rating (0 to 10; 0 is no effect, 10 is complete control), Nutsedge” value (purple nutsedge; Rate 250 g/ha, Postemergence)?
A: The value was 0.

Q: And the “Nutsedge plant response rating” value (purple nutsedge; [6])?
A: Its value is 3.

Q: And the “Cocklebur plant response rating” value (cocklebur; [1])?
A: Its value is 0.

Q: What about the “Cocklebur plant response rating” value (cocklebur; [2]) of the same compound?
A: Its value is 0.

Q: And the “Plant response rating, Cocklebur” value (cocklebur; [3])?
A: Its value is 0.

Q: And the “Cocklebur plant response rating” value (cocklebur; [4])?
A: Its value is 0.

Q: What about the “Cocklebur plant response rating” value (cocklebur; [7]) of the same compound?
A: Its value is 0.

Q: And the “Cocklebur plant response rating” value (cocklebur; [5])?
A: The value was 0.

Q: And the “Plant response rating (0 to 10; 0 is no effect, 10 is complete control), Cocklebur” value (cocklebur; Rate 250 g/ha, Postemergence)?
A: Its value is 1.

Q: What about the “Cocklebur plant response rating” value (cocklebur; [6]) of the same compound?
A: The value was 2.

Q: And the “Ducksalad plant response rating” value (duck salad; [8])?
A: Its value is 0.

Q: And the “Ducksalad plant response rating” value (duck salad; [9])?
A: The value was 0.

Q: And the “Ducksalad plant response rating” value (duck salad; [10])?
A: The value was 0.

Q: What about the “Ducksalad plant response rating” value (duck salad; [11]) of the same compound?
A: The value was 0.

Q: What about the “Wheat plant response rating” value (wheat; [1]) of the same compound?
A: Its value is 0.

Q: What about the “Wheat plant response rating” value (wheat; [2]) of the same compound?
A: Its value is 0.

Q: What about the “Plant response rating, Wheat” value (wheat; [3]) of the same compound?
A: The value was 5.

Q: And the “Wheat plant response rating” value (wheat; [5])?
A: Its value is 0.

Q: What about the “Wheat plant response rating” value (wheat; [6]) of the same compound?
A: Its value is 4.

Q: What about the “Soybean plant response rating” value (soybean; [1]) of the same compound?
A: The value was 0.

Q: What about the “Soybean plant response rating” value (soybean; [2]) of the same compound?
A: The value was 0.

Q: What about the “Plant response rating, Soybean” value (soybean; [3]) of the same compound?
A: The value was 2.

Q: And the “Soybean plant response rating” value (soybean; [5])?
A: Its value is 0.

Q: What about the “Soybean plant response rating” value (soybean; [6]) of the same compound?
A: Its value is 4.

Q: What about the “Rape plant response rating” value (rape; [1]) of the same compound?
A: Its value is 0.

Q: And the “Rape plant response rating” value (rape; [2])?
A: Its value is 10.

Q: What about the “Plant response rating, Rape” value (rape; [3]) of the same compound?
A: Its value is 10.

Q: What about the “Rape plant response rating” value (rape; [5]) of the same compound?
A: Its value is 2.

Q: And the “Plant response rating (0 to 10; 0 is no effect, 10 is complete control), Rape” value (rape; Rate 250 g/ha, Postemergence)?
A: Its value is 0.

Q: What about the “Rape plant response rating” value (rape; [6]) of the same compound?
A: Its value is 0.

Q: What about the “S. Flatsedge plant response rating” value (smallflower flatsedge; [8]) of the same compound?
A: Its value is 0.

Q: What about the “S. Flatsedge plant response rating” value (smallflower flatsedge; [9]) of the same compound?
A: Its value is 0.

Q: And the “S. Flatsedge plant response rating” value (smallflower flatsedge; [10])?
A: Its value is 0.

Q: And the “S. Flatsedge plant response rating” value (smallflower flatsedge; [11])?
A: The value was 0.

Q: What about the “Barnyardgrass plant response rating” value (bamyardgrass; [8]) of the same compound?
A: Its value is 0.

Q: And the “Barnyardgrass plant response rating” value (bamyardgrass; [9])?
A: The value was 0.

Q: What about the “Barnyardgrass plant response rating” value (bamyardgrass; [10]) of the same compound?
A: Its value is 0.

Q: And the “Barnyardgrass plant response rating” value (bamyardgrass; [11])?
A: The value was 8.

Q: And the “Blackgrass plant response rating” value (blackgrass; [2])?
A: Its value is 6.

Q: And the “Plant response rating, Blackgrass” value (blackgrass; [3])?
A: Its value is 10.

Q: What about the “Blackgrass plant response rating” value (blackgrass; [4]) of the same compound?
A: Its value is 0.

Q: What about the “Blackgrass plant response rating” value (blackgrass; [7]) of the same compound?
A: Its value is 2.

Q: What about the “Blackgrass plant response rating” value (blackgrass; [5]) of the same compound?
A: The value was 5.

Q: What about the “Plant response rating (0 to 10; 0 is no effect, 10 is complete control), Blackgrass” value (blackgrass; Rate 250 g/ha, Postemergence) of the same compound?
A: The value was 6.

Q: What about the “Blackgrass plant response rating” value (blackgrass; [6]) of the same compound?
A: The value was 8.

Q: And the “Rice plant response rating” value (rice; [8])?
A: Its value is 0.

Q: And the “Rice plant response rating” value (rice; [9])?
A: Its value is 0.

Q: What about the “Rice plant response rating” value (rice; [10]) of the same compound?
A: The value was 0.

Q: And the “Rice plant response rating” value (rice; [11])?
A: The value was 0.

Q: And the “Giant foxtail plant response rating” value (giant foxtail; [1])?
A: The value was 8.

Q: What about the “Giant foxtail plant response rating” value (giant foxtail; [2]) of the same compound?
A: The value was 10.

Q: What about the “Plant response rating, Giant foxtail” value (giant foxtail; [3]) of the same compound?
A: Its value is 10.

Q: What about the “Giant foxtail plant response rating” value (giant foxtail; [5]) of the same compound?
A: Its value is 9.

Q: And the “Plant response rating (0 to 10; 0 is no effect, 10 is complete control), Giant foxtail” value (giant foxtail; Rate 250 g/ha, Postemergence)?
A: The value was 5.

Q: What about the “Giant foxtail plant response rating” value (giant foxtail; [6]) of the same compound?
A: Its value is 8.
